In patent US9499550B2 (BRISTOL-MYERS SQUIBB COMPANY, priority 2012, dated 2016):

Key:
[1] = test system: HCV genotype 1b (Con1) replicon in HUH-7 cells; test: HCV replicon luciferase reporter assay, genotype 1b; type: cell-based; conditions: Hepatitis C virus, Huh-7, 72 h, HCV genotype 1b replicon luciferase assay, 3 days incubation, range class, read-out: LE_1b (EC50, range)
Outline: (§1)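 Replicon inhibition for both genotypes was measured as Renilla luciferase signal (EnduRen, 7.5 μM final, 2 h) after 3-day, 37° C exposure of replicon-bearing HUH-7 cells in 4% FCS DMEM, 0.5% DMSO. The 1b construct carries S1179I; the 1a H77 construct carries P1496L and S2204I. Twenty-point, 3-fold dilutions were fitted four-parametrically for EC50, and CC50 was taken from multiplexed Cell Titer-Blue.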

[2] = test system: HCV genotype 1a (H77 strain) replicon in HUH-7 cells; test: HCV replicon luciferase reporter assay, genotype 1a; type: cell-based; conditions: Hepatitis C virus, Huh-7, 72 h, HCV genotype 1a replicon luciferase assay, 3 days incubation, range class, read-out: LE_1a (EC50, range)
Outline: as §1

SMILES	EC50 [1] [nM]	EC50 [2] [nM]
COc1cnc(O[C@@H]2C[C@H]3C(=O)N[C@]4(C(=O)NS(=O)(=O)C5(CF)CC5)C[C@H]4/C=C\CC[C@@H](C)C[C@@H](C)[C@H](NC(=O)OC4(C(F)(F)F)CCOCC4)C(=O)N3C2)c2ccccc12 [Compound 1048, 4-(trifluoromethyl)tetrahydro-2H-pyran-4-yl((2R,6S,7R,9R,13aS,14aR,16aS,Z)-14a-(((1-(fluoromethyl)cyclopropyl)sulfonyl)carbamoyl)-2-((4-methoxyisoquinolin-1-yl)oxy)-7,9-dimethyl-5,16-dioxo-1,2,3,5,6,7,8,9,10,11,13a,14,14a,15,16,16a-hexadecahydrocyclopropa[e]pyrrolo[1,2-a][1,4]diazacyclopentadecin-6-yl)carbamate]	< 5.46	< 5.46
COCC(C)(C)OC(=O)N[C@@H]1C(=O)N2C[C@H](Oc3ncc(OC)c4ccccc34)C[C@H]2C(=O)N[C@]2(C(=O)NS(=O)(=O)C3(CF)CC3)C[C@H]2/C=C\CC[C@H](C)C[C@H]1C [Compound 1049, 1-methoxy-2-methylpropan-2-yl((2R,6S,7R,9S,13aS,14aR,16aS,Z)-14a-(((1-(fluoromethyl)cyclopropyl)sulfonyl)carbamoyl)-2-((4-methoxyisoquinolin-1-yl)oxy)-7,9-dimethyl-5,16-dioxo-1,2,3,5,6,7,8,9,10,11,13a,14,14a,15,16,16a-hexadecahydrocyclopropa[e]pyrrolo[1,2-a][1,4]diazacyclopentadecin-6-yl)carbamate]	4.82 to 103	4.82 to 103
COCC(C)(C)OC(=O)N[C@@H]1C(=O)N2C[C@H](Oc3ncc(OC)c4ccccc34)C[C@H]2C(=O)N[C@]2(C(=O)NS(=O)(=O)C3(CF)CC3)C[C@H]2/C=C\CC[C@@H](C)C[C@H]1C [Compound 1050, 1-methoxy-2-methylpropan-2-yl((2R,6S,7R,9R,13aS,14aR,16aS,Z)-14a-(((1-(fluoromethyl)cyclopropyl)sulfonyl)carbamoyl)-2-((4-methoxyisoquinolin-1-yl)oxy)-7,9-dimethyl-5,16-dioxo-1,2,3,5,6,7,8,9,10,11,13a,14,14a,15,16,16a-hexadecahydrocyclopropa[e]pyrrolo[1,2-a][1,4]diazacyclopentadecin-6-yl)carbamate]	< 5.46	< 5.46
COc1cnc(O[C@@H]2C[C@H]3C(=O)N[C@]4(C(=O)NS(=O)(=O)C5(CF)CC5)C[C@H]4/C=C\CC[C@H](C)C[C@@H](C)[C@H](NC(=O)OC4(C)CCOCC4)C(=O)N3C2)c2ccccc12 [Compound 1051, 4-methyltetrahydro-2H-pyran-4-yl((2R,6S,7R,9S,13aS,14aR,16aS,Z)-14a-(((1-(fluoromethyl)cyclopropyl)sulfonyl)carbamoyl)-2-((4-methoxyisoquinolin-1-yl)oxy)-7,9-dimethyl-5,16-dioxo-1,2,3,5,6,7,8,9,10,11,13a,14,14a,15,16,16a-hexadecahydrocyclopropa[e]pyrrolo[1,2-a][1,4]diazacyclopentadecin-6-yl)carbamate]	4.82 to 103	4.82 to 103
COc1cnc(O[C@@H]2C[C@H]3C(=O)N[C@]4(C(=O)NS(=O)(=O)C5(CF)CC5)C[C@H]4/C=C\CC[C@@H](C)C[C@@H](C)[C@H](NC(=O)OC4(C)CCOCC4)C(=O)N3C2)c2ccccc12 [Compound 1052, 4-methyltetrahydro-2H-pyran-4-yl((2R,6S,7R,9R,13aS,14aR,16aS,Z)-14a-(((1-(fluoromethyl)cyclopropyl)sulfonyl)carbamoyl)-2-((4-methoxyisoquinolin-1-yl)oxy)-7,9-dimethyl-5,16-dioxo-1,2,3,5,6,7,8,9,10,11,13a,14,14a,15,16,16a-hexadecahydrocyclopropa[e]pyrrolo[1,2-a][1,4]diazacyclopentadecin-6-yl)carbamate]	< 5.46	4.82 to 103
COc1cnc(O[C@@H]2C[C@H]3C(=O)N[C@]4(C(=O)NS(=O)(=O)C5(CF)CC5)C[C@H]4/C=C\CC[C@H](C)C[C@@H](C)[C@H](NC(=O)OC4(C(C)C)COC4)C(=O)N3C2)c2ccccc12 [Compound 1053, 3-isopropyloxetan-3-yl ((2R,6S,7R,9S,13aS,14aR,16aS,Z)-14a-(((1-(fluoromethyl)cyclopropyl)sulfonyl)carbamoyl)-2-((4-methoxyisoquinolin-1-yl)oxy)-7,9-dimethyl-5,16-dioxo-1,2,3,5,6,7,8,9,10,11,13a,14,14a,15,16,16a-hexadecahydrocyclopropa[e]pyrrolo[1,2-a][1,4]diazacyclopentadecin-6-yl)carbamate]	4.82 to 103	4.82 to 103
COc1cnc(O[C@@H]2C[C@H]3C(=O)N[C@]4(C(=O)NS(=O)(=O)C5(CF)CC5)C[C@H]4/C=C\CC[C@@H](C)C[C@@H](C)[C@H](NC(=O)OC4(C(C)C)COC4)C(=O)N3C2)c2ccccc12 [Compound 1054, 3-isopropyloxetan-3-yl ((2R,6S,7R,9R,13aS,14aR,16aS,Z)-14a-(((1-(fluoromethyl)cyclopropyl)sulfonyl)carbamoyl)-2-((4-methoxyisoquinolin-1-yl)oxy)-7,9-dimethyl-5,16-dioxo-1,2,3,5,6,7,8,9,10,11,13a,14,14a,15,16,16a-hexadecahydrocyclopropa[e]pyrrolo[1,2-a][1,4]diazacyclopentadecin-6-yl)carbamate]	< 5.46	< 5.46
COc1cnc(O[C@@H]2C[C@H]3C(=O)N[C@]4(C(=O)NS(=O)(=O)C5(CF)CC5)C[C@H]4/C=C\CC[C@H](C)C[C@@H](C)[C@H](NC(=O)OC4(C)CCCOC4)C(=O)N3C2)c2ccccc12 (stereo partly drawn) [Compound 1055, 3-methyltetrahydro-2H-pyran-3-yl((2R,6S,7R,9S,13aS,14aR,16aS,Z)-14a-(((1-(fluoromethyl)cyclopropyl)sulfonyl)carbamoyl)-2-((4-methoxyisoquinolin-1-yl)oxy)-7,9-dimethyl-5,16-dioxo-1,2,3,5,6,7,8,9,10,11,13a,14,14a,15,16,16a-hexadecahydrocyclopropa[e]pyrrolo[1,2-a][1,4]diazacyclopentadecin-6-yl)carbamate]	< 5.46	< 5.46
COc1cnc(O[C@@H]2C[C@H]3C(=O)N[C@]4(C(=O)NS(=O)(=O)C5(CF)CC5)C[C@H]4/C=C\CC[C@@H](C)C[C@@H](C)[C@H](NC(=O)OC4(C)CCCOC4)C(=O)N3C2)c2ccccc12 (stereo partly drawn) [Compound 1056, 3-methyltetrahydro-2H-pyran-3-yl((2R,6S,7R,9R,13aS,14aR,16aS,Z)-14a-(((1-(fluoromethyl)cyclopropyl)sulfonyl)carbamoyl)-2-((4-methoxyisoquinolin-1-yl)oxy)-7,9-dimethyl-5,16-dioxo-1,2,3,5,6,7,8,9,10,11,13a,14,14a,15,16,16a-hexadecahydrocyclopropa[e]pyrrolo[1,2-a][1,4]diazacyclopentadecin-6-yl)carbamate]	< 5.46	< 5.46
COc1cnc(O[C@@H]2C[C@H]3C(=O)N[C@]4(C(=O)NS(=O)(=O)C5(CF)CC5)C[C@H]4/C=C\CC[C@H](C)C[C@@H](C)[C@H](NC(=O)OC4(C(F)(F)F)CCCOC4)C(=O)N3C2)c2ccccc12 (stereo partly drawn) [Compound 1057, 3-(trifluoromethyl)tetrahydro-2H-pyran-3-yl((2R,6S,7R,9S,13aS,14aR,16aS,Z)-14a-(((1-(fluoromethyl)cyclopropyl)sulfonyl)carbamoyl)-2-((4-methoxyisoquinolin-1-yl)oxy)-7,9-dimethyl-5,16-dioxo-1,2,3,5,6,7,8,9,10,11,13a,14,14a,15,16,16a-hexadecahydrocyclopropa[e]pyrrolo[1,2-a][1,4]diazacyclopentadecin-6-yl)carbamate]	< 5.46	< 5.46
COc1cnc(O[C@@H]2C[C@H]3C(=O)N[C@]4(C(=O)NS(=O)(=O)C5(CF)CC5)C[C@H]4/C=C\CC[C@@H](C)C[C@@H](C)[C@H](NC(=O)OC4(C(F)(F)F)CCCOC4)C(=O)N3C2)c2ccccc12 (stereo partly drawn) [Compound 1058, 3-(trifluoromethyl)tetrahydro-2H-pyran-3-yl((2R,6S,7R,9R,13aS,14aR,16aS,Z)-14a-(((1-(fluoromethyl)cyclopropyl)sulfonyl)carbamoyl)-2-((4-methoxyisoquinolin-1-yl)oxy)-7,9-dimethyl-5,16-dioxo-1,2,3,5,6,7,8,9,10,11,13a,14,14a,15,16,16a-hexadecahydrocyclopropa[e]pyrrolo[1,2-a][1,4]diazacyclopentadecin-6-yl)carbamate]	< 5.46	< 5.46
COc1cnc(O[C@@H]2C[C@H]3C(=O)N[C@]4(C(=O)NS(=O)(=O)C5(CF)CC5)C[C@H]4/C=C\CC[C@H](C)C[C@@H](C)[C@H](NC(=O)OC4(C5CC5)COC4)C(=O)N3C2)c2ccccc12 [Compound 1059, 3-cyclopropyloxetan-3-yl((2R,6S,7R,9S,13aS,14aR,16aS,Z)-14a-(((1-(fluoromethyl)cyclopropyl)sulfonyl)carbamoyl)-2-((4-methoxyisoquinolin-1-yl)oxy)-7,9-dimethyl-5,16-dioxo-1,2,3,5,6,7,8,9,10,11,13a,14,14a,15,16,16a-hexadecahydrocyclopropa[e]pyrrolo[1,2-a][1,4]diazacyclopentadecin-6-yl)carbamate]	4.82 to 103	4.82 to 103
COc1cnc(O[C@@H]2C[C@H]3C(=O)N[C@]4(C(=O)NS(=O)(=O)C5(CF)CC5)C[C@H]4/C=C\CC[C@@H](C)C[C@@H](C)[C@H](NC(=O)OC4(C5CC5)COC4)C(=O)N3C2)c2ccccc12 [Compound 1060, 3-cyclopropyloxetan-3-yl((2R,6S,7R,9R,13aS,14aR,16aS,Z)-14a-(((1-(fluoromethyl)cyclopropyl)sulfonyl)carbamoyl)-2-((4-methoxyisoquinolin-1-yl)oxy)-7,9-dimethyl-5,16-dioxo-1,2,3,5,6,7,8,9,10,11,13a,14,14a,15,16,16a-hexadecahydrocyclopropa[e]pyrrolo[1,2-a][1,4]diazacyclopentadecin-6-yl)carbamate]	< 5.46	< 5.46
